Results on one substance are retold here after patent publication US7553824B2, “Kit for determining polysaccharide-binding activity of mononuclear cells present in peripheral blood” (Ajinomoto Co., Inc., priority 2004, dated 2009).

The subject of one assay is monocytes. The assay is described as follows: Test on binding-inhibitory effect of lentinan, human blood. The following applies: 100 μg/mL lentinan added before 10 μg/mL fluorescein-labeled lentinan, Cases 3 and 4. Here is the method: To the human blood sample, there was added the solution of lentinan (reference reagent 2) in a concentration of […], the resulting mixture was cultured at 37° C. for 15 minutes, fluorescein-labeled lentinan was then added thereto in a concentration of 10 μg/mL and the resulting mixture was further cultivated at 37° C. for additional 30 minutes. Thereafter, a PE-labeled antibody (available from Caltag Company) against human CD14 was added thereto, the resulting mixture was cultured at 37° C. for 30 minutes, 2 mL/tube of FACS Lysing Solution (a hemolysis/fixation liquid available from BD Company; diluted 10 times with distilled water) and then the resulting mixture was allowed to stand at room temperature for 10 minutes for the hemolysis of the blood sample. The subsequent operations and analysis were carried out by repeating the same procedures used above in the binding ability-determining method (in the foregoing paragraph) (the results thus obtained are shown in FIG. 7 (indicated by LNT+FL)). The similar analysis was carried out using fluorescein-labeled dextran as a control (reference reagent 1) for the fluorescein-labeled lentinan.

Assay [1] concerns blood cells (monocytes, granulocytes, lymphocytes). The assay is described as follows: Test on binding-inhibitory effect of lentinan, mouse whole blood. Details: species or system ICR mice. The following applies: 50 μg/mL un-labeled lentinan added before 5-40 μg/mL fluorescein-labeled lentinan, one hour. The protocol:
Upon the determination of the binding ability and prior to the dispensation of the whole blood into tubes, a 2 mg/mL lentinan solution diluted 10 times with PBS(−) was introduced into each tube in an amount of 25 μL/tube while ice-cooling the tubes, then the whole blood was dispensed into the tubes in an amount of 65 μL/tube and thereafter, a solution of fluorescein-labeled lentinan was added to each tube in an amount of 10 μL/tube (the final concentration of the lentinan solution for inhibition was set at 50 μg/mL). Then the subsequent operations were carried out according to the same procedures used above in the method for determining the binding ability (the previous section). (The results thus obtained are shown in FIG. 1 (indicated by FL+L50)).

In the next assay the test system is S180 mouse sarcoma cells. The following applies: S180 subcutaneously transplanted, cited from earlier work.

Like-named read-outs stand apart in the source and are kept apart here.

Consider lentinan, for which the “effect on binding of fluorescein-labeled lentinan with cells” value with monocytes is given as “inhibited”. Besides, the “effect on the binding ability of cells to fluorescein-labeled lentinan” value in assay [1] is given as “inhibited”. Further, the anti-tumor effect entry in the assay with S180 mouse sarcoma cells (C3H mice) is given as “weak anti-tumor effects”; with S180 mouse sarcoma cells (C57BL/6 mice), “medium anti-tumor effects”; with S180 mouse sarcoma cells (ICR and BALB/c mice), “higher anti-tumor effects”.
